Here are results for 21 compounds from US20250270200A1, “CTPS1 INHIBITORS AND USES THEREOF” (Nimbus Clotho, Inc., priority 2022, published 2025).

This assay concerns the target T1, human CTPS1 (Homo sapiens, UniProt P17812).
T1 sequence (P17812 1-591): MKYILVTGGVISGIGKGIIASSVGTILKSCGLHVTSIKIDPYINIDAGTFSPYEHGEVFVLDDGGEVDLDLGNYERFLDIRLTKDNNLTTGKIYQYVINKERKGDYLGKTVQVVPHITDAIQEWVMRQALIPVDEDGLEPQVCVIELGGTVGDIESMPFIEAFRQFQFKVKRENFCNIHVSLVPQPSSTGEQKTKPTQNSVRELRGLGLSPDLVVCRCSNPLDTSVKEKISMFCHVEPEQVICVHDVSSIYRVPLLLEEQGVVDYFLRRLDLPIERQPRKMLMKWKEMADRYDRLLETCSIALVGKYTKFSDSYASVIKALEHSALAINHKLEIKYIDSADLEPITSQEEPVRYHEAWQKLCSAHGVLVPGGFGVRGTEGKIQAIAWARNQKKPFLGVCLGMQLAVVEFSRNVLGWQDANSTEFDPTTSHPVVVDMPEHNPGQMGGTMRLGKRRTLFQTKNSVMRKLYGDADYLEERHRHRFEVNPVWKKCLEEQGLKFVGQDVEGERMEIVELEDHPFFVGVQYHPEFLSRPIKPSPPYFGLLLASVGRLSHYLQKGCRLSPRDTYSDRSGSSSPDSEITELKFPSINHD
The assay is described as follows: ADP-Glo assay, human CTPS1 enzyme inhibition. It is filed as biochemical. The following applies: wild-type human CTPS1, 25 nM enzyme; ADP-Glo; read-out: ADP-Glo_WT_hCTPS1—25 nM_IC50 (IC50). The procedure: The enzyme inhibitory activities of the compounds of the invention against the target of interest were determined using the ADP-Glo™ assay (Promega). Assays for human CTPS1 and CTPS2 were performed in 1× assay buffer containing 50 mM HEPES (Life Technologies), 10 mM Mg2+, 5 mM KCl, 2 mM DTT, 0.01% F-127, pH to 7.4 accordingly. All reagents are from Sigma-Aldrich, unless specified otherwise. Purified human full length active N-terminal FLAG-8×HIS-TEV tagged CTPS1 (UniprotKB—P17812, […]-CTPS1[1-591]) was generated using a mammalian expression system at Viva Biotech (Shanghai) Ltd.
Purified human CTPS1 protein was prepared in 1× assay buffer to the final working protein concentration required for the reaction. A 2.5 μL volume per well of human CTPS 1 protein was mixed with 0.1 μL per well of test compound dissolved in DMSO and pre-incubated at 25 degrees C. for 10 minutes. 2.5 μL per well of the reaction precursors ATP (UltraPure ATP from ADP-Glo™ kit) and UTP were then added and pre-incubated for an additional 10 minutes at 25 degrees C. Finally, the reaction was initiated by the addition of 5 μL of the reaction precursors L-glutamine and GTP. The final concentration of all reaction components in the assay: ATP (120 μM), UTP (160 μM), GTP (60 μM), L-Glutamine (100 μM), DMSO (1%), hCTPS1 (25 nM). This mixture was incubated for an appropriate amount of time within the determined linear phase of the reaction at 25 degrees C. under sealed plate conditions with constant agitation at 500 revolutions per minute (rpm). ADP-Glo™ reagent was added for 60 minutes (10 μL per well) and subsequently ADP-Glo™ development reagent was added for 60 minutes (20 μL per well) prior to signal detection in a microplate reader (Envision Multilabel Reader, Perkin Elmer). Following each reagent addition over the course of the assay, assay plates were pulse centrifuged for 1 minute at 1000 rpm.
The enzyme converts ATP to ADP and the ADP-Glo™ reagent subsequently depletes any remaining ATP in the reaction system. The ADP-Glo™ detection reagents converts the ADP that has been produced by the enzyme back into ATP, which is then utilized as a substrate together with luciferin for the enzyme luciferase. Light generated by this chemiluminescent reaction is quantified and is directly proportional to the amount of ADP produced by the CTPS1 enzyme reaction. […]

For the compound `CCOc1cncc(-c2cnc(C(=O)N[C@H](c3cc(NS(=O)(=O)C4CC4)ccn3)[C@@H](C)CN3CCCCC3)s2)n1` (stereo in doubt) [I-54, N-((1S,2S)-1-(4-(cyclopropanesulfonamido)pyridin-2-yl)-2-methyl-3-(piperidin-1-yl)propyl)-5-(6-ethoxypyrazin-2-yl)thiazole-2-carboxamide], the IC50 lay within 5 to 25 nM.

Turning to `CCOc1cncc(-c2cnc(C(=O)NCc3cc(NS(=O)(=O)C4CC4)ncn3)s2)n1` [I-5, N-((6-(cyclopropanesulfonamido)pyrimidin-4-yl)methyl)-5-(6-ethoxypyrazin-2-yl)thiazole-2-carboxamide], the IC50 was 5 to 25 nM.

In the case of `O=C(NC(CCN1CCCCC1)c1cc(NS(=O)(=O)C2CC2)ccn1)c1ncc(-c2cnn3ccc(Cl)cc23)s1` (stereo not drawn) [I-8, 5-(5-chloropyrazolo[1,5-a]pyridin-3-yl)-N-(1-(4-(cyclopropanesulfonamido)pyridin-2-yl)-3-(piperidin-1-yl)propyl)thiazole-2-carboxamide], the half-maximal inhibitory concentration (IC50) was 25 to 50 nM.

For `CCOc1cncc(-c2cnc(C(=O)N[C@@H](c3cc(NS(=O)(=O)C4CC4)ccn3)C3CCOCC3)s2)n1` [I-19, (R)—N-((4-(cyclopropanesulfonamido)pyridin-2-yl)(tetrahydro-2H-pyran-4-yl)methyl)-5-(6-ethoxypyrazin-2-yl)thiazole-2-carboxamide], the IC50 was 5 to 25 nM.

As for `CCOc1cncc(-c2cnc(C(=O)N[C@H](c3cc(NS(=O)(=O)C4CC4)ccn3)C3CCOCC3)s2)n1` [I-20, (S)—N-((4-(cyclopropanesulfonamido)pyridin-2-yl)(tetrahydro-2H-pyran-4-yl)methyl)-5-(6-ethoxypyrazin-2-yl)thiazole-2-carboxamide], the IC50 lay within 5 to 25 nM.

As for `CCOc1cncc(-c2cnc(C(=O)N[C@H](COC)c3nccc(NS(=O)(=O)C4CC4)n3)s2)n1` [I-21, (S)-N-(1-(4-(cyclopropanesulfonamido)pyrimidin-2-yl)-2-methoxyethyl)-5-(6-ethoxypyrazin-2-yl)thiazole-2-carboxamide], the IC50 lay within 5 to 25 nM.

As to `CCOc1cncc(-c2cnc(C(=O)N[C@@H](c3cc(NS(=O)(=O)C4CC4)ccn3)C(C)(C)CN(C)C)s2)n1` [I-43, (R)-N-(1-(4-(cyclopropanesulfonamido)pyridin-2-yl)-3-(dimethylamino)-2,2-dimethylpropyl)-5-(6-ethoxypyrazin-2-yl)thiazole-2-carboxamide], the 50% inhibitory concentration (IC50) fell in the range of 5 to 25 nM.

Turning to `CCOc1cncc(-c2cnc(C(=O)N[C@@H](c3cc(NS(=O)(=O)C4CC4)ccn3)[C@H](C)OC)s2)n1` [I-44, N-((1S,2S)-1-(4-(cyclopropanesulfonamido)pyridin-2-yl)-2-methoxypropyl)-5-(6-ethoxypyrazin-2-yl)thiazole-2-carboxamide], the IC50 was in the range of 5 to 25 nM.

As for `CCOc1cncc(-c2cnc(C(=O)N[C@H](c3cc(NS(=O)(=O)C4CC4)ccn3)[C@@H](C)OC)s2)n1` [I-45, N-((1R,2R)-1-(4-(cyclopropanesulfonamido)pyridin-2-yl)-2-methoxypropyl)-5-(6-ethoxypyrazin-2-yl)thiazole-2-carboxamide], the IC50 was 5 to 25 nM.

Turning to `CCOc1cncc(-c2cnc(C(=O)N[C@@H](c3cc(NS(=O)(=O)C4CC4)ccn3)[C@@H](C)OC)s2)n1` [I-46, N-((1S,2R)-1-(4-(cyclopropanesulfonamido)pyridin-2-yl)-2-methoxypropyl)-5-(6-ethoxypyrazin-2-yl)thiazole-2-carboxamide], the half-maximal inhibitory concentration (IC50) lay in the range of 5 to 25 nM.

As for `CCOc1cncc(-c2cnc(C(=O)NC(CC(C)(C)N(C)C)c3cc(NS(=O)(=O)C4CC4)ccn3)s2)n1` (stereo not drawn) [I-48, N-(1-(4-(cyclopropanesulfonamido)pyridin-2-yl)-3-(dimethylamino)-3-methylbutyl)-5-(6-ethoxypyrazin-2-yl)thiazole-2-carboxamide], the half-inhibitory concentration (IC50) was 5 to 25 nM.

Turning to `CCOc1cncc(-c2cnc(C(=O)N[C@H](CC(C)(C)N(C)C)c3cc(NS(=O)(=O)C4CC4)ccn3)s2)n1` [I-49, (R)-N-(1-(4-(cyclopropanesulfonamido)pyridin-2-yl)-3-(dimethylamino)-3-methylbutyl)-5-(6-ethoxypyrazin-2-yl)thiazole-2-carboxamide], the half-maximal inhibitory concentration (IC50) was 50 to 100 nM.

For the compound `CCOc1cncc(-c2cnc(C(=O)N[C@@H](CC(C)(C)N(C)C)c3cc(NS(=O)(=O)C4CC4)ccn3)s2)n1` [I-50, (S)-N-(1-(4-(cyclopropanesulfonamido)pyridin-2-yl)-3-(dimethylamino)-3-methylbutyl)-5-(6-ethoxypyrazin-2-yl)thiazole-2-carboxamide], the concentration for half-maximal inhibition (IC50) fell in the range of 5 to 25 nM.

Regarding `C[C@@H](CN1CCCCC1)[C@@H](NC(=O)c1ncc(-c2cnn3ccc(Cl)cc23)s1)c1cc(NS(=O)(=O)C2CC2)ccn1` [I-55, 5-(5-chloropyrazolo[1,5-a]pyridin-3-yl)-N-((1R,2S)-1-(4-(cyclopropanesulfonamido)pyridin-2-yl)-2-methyl-3-(piperidin-1-yl)propyl)thiazole-2-carboxamide], the concentration for half-maximal inhibition (IC50) was 50 to 100 nM.

In the case of `C[C@H](CN1CCCCC1)[C@H](NC(=O)c1ncc(-c2cnn3ccc(Cl)cc23)s1)c1cc(NS(=O)(=O)C2CC2)ccn1` [I-57, 5-(5-chloropyrazolo[1,5-a]pyridin-3-yl)-N-((1S,2R)-1-(4-(cyclopropanesulfonamido)pyridin-2-yl)-2-methyl-3-(piperidin-1-yl)propyl)thiazole-2-carboxamide], the concentration for half-maximal inhibition (IC50) lay in the range of 5 to 25 nM.

Take `C[C@@H](CN1CCCCC1)[C@H](NC(=O)c1ncc(-c2cnn3ccc(Cl)cc23)s1)c1cc(NS(=O)(=O)C2CC2)ccn1` [I-58, 5-(5-chloropyrazolo[1,5-a]pyridin-3-yl)-N-((1S,2S)-1-(4-(cyclopropanesulfonamido)pyridin-2-yl)-2-methyl-3-(piperidin-1-yl)propyl)thiazole-2-carboxamide]: the IC50 was 50 to 100 nM.

Regarding `CCOc1cncc(-c2cnc(C(=O)N[C@H](c3cc(NS(=O)(=O)C4CC4)ccn3)[C@H]3CCCO3)s2)n1` [I-59, N-((R)-(4-(cyclopropanesulfonamido)pyridin-2-yl)((R)-tetrahydrofuran-2-yl)methyl)-5-(6-ethoxypyrazin-2-yl)thiazole-2-carboxamide], the 50% inhibitory concentration (IC50) lay within 25 to 50 nM.

For `CCOc1cncc(-c2cnc(C(=O)N[C@H](c3cc(NS(=O)(=O)C4CC4)ccn3)[C@@H]3CCCO3)s2)n1` [I-60, N-((R)-(4-(cyclopropanesulfonamido)pyridin-2-yl)((S)-tetrahydrofuran-2-yl)methyl)-5-(6-ethoxypyrazin-2-yl)thiazole-2-carboxamide], the IC50 lay within 5 to 25 nM.

Take `CCOc1cncc(-c2cnc(C(=O)N[C@@H](c3cc(NS(=O)(=O)C4CC4)ccn3)[C@@H]3CCCO3)s2)n1` [I-61, N-((S)-(4-(cyclopropanesulfonamido)pyridin-2-yl)((S)-tetrahydrofuran-2-yl)methyl)-5-(6-ethoxypyrazin-2-yl)thiazole-2-carboxamide]: the IC50 lay in the range of 5 to 25 nM.

As to `CCOc1cncc(-c2cnc(C(=O)N[C@@H](c3cc(NS(=O)(=O)C4CC4)ccn3)[C@H]3CCCO3)s2)n1` [I-62, N-((S)-(4-(cyclopropanesulfonamido)pyridin-2-yl)((R)-tetrahydrofuran-2-yl)methyl)-5-(6-ethoxypyrazin-2-yl)thiazole-2-carboxamide], the 50% inhibitory concentration (IC50) lay in the range of 5 to 25 nM.

For `CCOc1cncc(-c2cnc(C(=O)N(C)[C@H](c3cc(NS(=O)(=O)C4CC4)ccn3)[C@H]3CCOC3)s2)n1` [I-63, N-((S)-(4-(cyclopropanesulfonamido)pyridin-2-yl)((R)-tetrahydrofuran-3-yl)methyl)-5-(6-ethoxypyrazin-2-yl)-N-methylthiazole-2-carboxamide], the IC50 is more than 100 nM.
